How the values were obtained:
Type in all cases: cell-based
OCT2 (mOCT2) [1] = molecular target: T1, OCT2 (mOCT2) (Mus musculus, UniProt O70577); test: fluorescent substrate uptake in cells overexpressing mOCT2; uptake impaired in OCT1/[…](−/−) satellite glial cells
T1 construct: gene Slc22a2
T1 sequence (O70577 1-553): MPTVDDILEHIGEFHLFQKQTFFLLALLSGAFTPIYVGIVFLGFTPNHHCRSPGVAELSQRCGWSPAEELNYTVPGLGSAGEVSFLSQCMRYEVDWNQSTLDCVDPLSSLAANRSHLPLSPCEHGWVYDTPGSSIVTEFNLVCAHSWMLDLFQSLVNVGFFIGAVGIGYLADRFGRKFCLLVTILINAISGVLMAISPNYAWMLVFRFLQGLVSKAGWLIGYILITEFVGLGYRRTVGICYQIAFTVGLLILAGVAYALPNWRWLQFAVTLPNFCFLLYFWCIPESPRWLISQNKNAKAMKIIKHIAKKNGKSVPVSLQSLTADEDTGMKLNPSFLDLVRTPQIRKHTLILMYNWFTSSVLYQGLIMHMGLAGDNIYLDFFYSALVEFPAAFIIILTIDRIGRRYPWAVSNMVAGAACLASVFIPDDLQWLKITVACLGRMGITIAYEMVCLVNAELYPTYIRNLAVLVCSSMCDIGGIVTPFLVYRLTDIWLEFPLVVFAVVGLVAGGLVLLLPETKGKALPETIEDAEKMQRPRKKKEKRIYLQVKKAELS

OCT2 (hOCT2) [2] = molecular target: T2, OCT2 (hOCT2) (Homo sapiens, UniProt O15244); test: fluorescent substrate uptake in HEK293 and Hela cells overexpressing hOCT2
T2 construct: gene SLC22A2
T2 sequence (O15244 1-555): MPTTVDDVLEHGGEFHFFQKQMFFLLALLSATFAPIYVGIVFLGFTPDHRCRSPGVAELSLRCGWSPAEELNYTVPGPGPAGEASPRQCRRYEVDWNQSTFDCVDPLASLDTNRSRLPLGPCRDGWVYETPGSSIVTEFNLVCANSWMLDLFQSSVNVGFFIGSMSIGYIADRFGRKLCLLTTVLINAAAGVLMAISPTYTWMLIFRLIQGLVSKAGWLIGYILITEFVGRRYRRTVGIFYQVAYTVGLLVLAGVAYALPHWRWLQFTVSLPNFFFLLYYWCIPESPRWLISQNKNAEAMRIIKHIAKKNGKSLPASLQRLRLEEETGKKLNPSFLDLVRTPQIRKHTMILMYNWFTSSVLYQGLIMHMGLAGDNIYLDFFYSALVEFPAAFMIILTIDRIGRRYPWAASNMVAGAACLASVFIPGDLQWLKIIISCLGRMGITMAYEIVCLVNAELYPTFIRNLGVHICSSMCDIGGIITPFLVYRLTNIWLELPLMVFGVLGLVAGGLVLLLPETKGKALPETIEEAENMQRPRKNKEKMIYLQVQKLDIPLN

OCT2 (rOCT2) = molecular target: T3, OCT2 (rOCT2) (Rattus norvegicus, UniProt Q9R0W2); test: inhibition of TEA uptake in HEK293 cells overexpressing rOCT2
T3 construct: gene Slc22a2
T3 sequence (Q9R0W2 1-555): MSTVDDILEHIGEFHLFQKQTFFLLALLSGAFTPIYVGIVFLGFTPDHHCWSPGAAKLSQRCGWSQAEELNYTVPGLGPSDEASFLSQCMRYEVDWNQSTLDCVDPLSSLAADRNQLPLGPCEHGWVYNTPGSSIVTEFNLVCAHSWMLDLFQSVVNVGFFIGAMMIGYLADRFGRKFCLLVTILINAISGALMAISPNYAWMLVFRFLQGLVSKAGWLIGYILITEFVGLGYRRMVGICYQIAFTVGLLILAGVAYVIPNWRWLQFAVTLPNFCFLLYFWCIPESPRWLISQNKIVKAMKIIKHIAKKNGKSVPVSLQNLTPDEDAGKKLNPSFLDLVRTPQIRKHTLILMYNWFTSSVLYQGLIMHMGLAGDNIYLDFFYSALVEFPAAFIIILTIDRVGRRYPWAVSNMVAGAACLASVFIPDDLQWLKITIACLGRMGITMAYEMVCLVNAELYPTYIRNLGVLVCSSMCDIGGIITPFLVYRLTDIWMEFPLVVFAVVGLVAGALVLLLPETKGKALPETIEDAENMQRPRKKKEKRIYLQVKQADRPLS

OCT2 (hOCT2) [3] = molecular target: T2, OCT2 (hOCT2); test: inhibition of ASP uptake in Hela cells overexpressing hOCT2 ([…] in HEK293 cells)
OCT2 (mOCT2) [4] = molecular target: T1, OCT2 (mOCT2); test: inhibition of TEA, oxaliplatin and ASP uptake in HEK293 cells overexpressing mOCT2; reversible on washout

SMILES: CN(C)c1ccc(C=Cc2cc[n+](C)cc2)cc1 [4-(4-(dimethylamino)styryl)-N-methylpyridinium iodide]
- fluorescent substrate uptake in cells overexpressing mOCT2; uptake impaired in O (OCT2 (mOCT2) [1]): ASP was taken up in OCT2-proficient cells and uptake was significantly impaired under OCT2-deficient conditions
- fluorescent substrate uptake in HEK293 and Hela cells overexpressing hOCT2 (OCT2 (hOCT2) [2]): Concentration-dependent inhibition of OCT2-dependent ASP transport by duloxetine in HEK293 and Hela cells overexpressing hOCT2

SMILES: CNCC[C@H](Oc1cccc2ccccc12)c1cccs1 [duloxetine]
- inhibition of TEA uptake in HEK293 cells overexpressing rOCT2 (OCT2 (rOCT2)): These studies confirmed that duloxetine inhibits the transport of TEA by mouse, rat, and human OCT2.
- IC50 (OCT2 (hOCT2) [3]): 3.98 µM
- inhibition of TEA, oxaliplatin and ASP uptake in HEK293 cells overexpressing mOC (OCT2 (mOCT2) [4]): These studies confirmed that duloxetine inhibits the transport of TEA by mouse, rat, and human OCT2.

Reference: article PMC9730833, “Targeting OCT2 with Duloxetine to Prevent Oxaliplatin-induced Peripheral Neurotoxicity” (Cancer Research Communications, 2022)
